Results as given in the supplement of paper PMC10307832.

Experiments:
Test in all cases: relative viability (nuclei count vs DMSO), 5 days (fraction); higher = more cells survive
NCI-H1993 = system: NCI-H1993
Procedure, shortened: (§1)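 Lung cancer cell lines in 1536-well plates got either a single drug or a fixed anchor-drug dose together with five library-drug doses (not always all listed) in √10 steps, by pin tool, on the day after seeding. Nuclei were counted after 5 days, and relative viability is the treated-to-vehicle ratio of nuclei counts. Values are medians of duplicate plates.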

EBC-1 = system: EBC-1
Procedure, shortened: as §1

IA-LM = system: IA-LM
Procedure, shortened: as §1

A549 = system: A549
Procedure, shortened: as §1

NCI-H23 = system: NCI-H23
Procedure, shortened: as §1

NCI-H1703 = system: NCI-H1703
Procedure, shortened: as §1

NCI-H596 = system: NCI-H596
Procedure, shortened: as §1

LCLC-97TM1 = system: LCLC-97TM1
Procedure, shortened: as §1

NCI-H1299 = system: NCI-H1299
Procedure, shortened: as §1

UMC-11 = system: UMC-11
Procedure, shortened: as §1

NCI-H1355 = system: NCI-H1355
Procedure, shortened: as §1

NCI-H322M = system: NCI-H322M
Procedure, shortened: as §1

Calu-6 = system: Calu-6
Procedure, shortened: as §1

In the case of CCN(CC)CCCCNc1ncc2cc(-c3cc(OC)cc(OC)c3)c(NC(=O)NC(C)(C)C)nc2n1 + CC1(C)CCC(c2ccc(Cl)cc2)=C(CN2CCN(c3ccc(C(=O)NS(=O)(=O)c4ccc(N[C@H](CCN5CCOCC5)CSc5ccccc5)c(S(=O)(=O)C(F)(F)F)c4)cc3)CC2)C1 [Navitoclax] (partner 0.5 µM), the relative viability (NCI-H1993; first compound 0.01 µM) is reported as 0.904, the relative viability (NCI-H1993; first compound 0.03162 µM) is reported as 0.954 and the relative viability (NCI-H1993; first compound 0.1 µM) is reported as 0.963. The relative viability (NCI-H1993; first compound 0.3162 µM) was 1.07, the relative viability (NCI-H1993; first compound 1 µM) was 0.895 and the relative viability (EBC-1; first compound 0.01 µM) was 0.339. For the same compound, the relative viability (EBC-1; first compound 0.03162 µM) was 0.469, the relative viability (EBC-1; first compound 0.1 µM) was 0.442 and the relative viability (EBC-1; first compound 0.3162 µM) was 0.357. For the same compound, the relative viability (EBC-1; first compound 1 µM) was 0.37, the relative viability (IA-LM; first compound 0.01 µM) was 0.746 and the relative viability (IA-LM; first compound 0.03162 µM) was 0.882. It also gave a relative viability (IA-LM; first compound 0.1 µM) of 0.969, a relative viability (IA-LM; first compound 0.3162 µM) of 0.73 and a relative viability (IA-LM; first compound 1 µM) of 0.866. It also gave a relative viability (A549; first compound 0.01 µM) of 1.16, a relative viability (A549; first compound 0.03162 µM) of 1.24 and a relative viability (A549; first compound 0.1 µM) of 1.53. The relative viability (A549; first compound 0.3162 µM) was 1.23, the relative viability (A549; first compound 1 µM) was 1.07 and the relative viability (NCI-H23; first compound 0.01 µM) was 0.744. It also gave a relative viability (NCI-H23; first compound 0.03162 µM) of 0.85, a relative viability (NCI-H23; first compound 0.1 µM) of 1.09 and a relative viability (NCI-H23; first compound 0.3162 µM) of 0.921. It also gave a relative viability (NCI-H23; first compound 1 µM) of 0.843, a relative viability (NCI-H1703; first compound 0.01 µM) of 1.07 and a relative viability (NCI-H1703; first compound 0.1 µM) of 1.04. For the same compound, the relative viability (NCI-H1703; first compound 0.3162 µM) was 1.32, the relative viability (NCI-H1703; first compound 1 µM) was 0.925 and the relative viability (NCI-H596; first compound 0.01 µM) was 0.912. The relative viability (NCI-H596; first compound 0.03162 µM) was 1.02, the relative viability (NCI-H596; first compound 0.1 µM) was 0.919 and the relative viability (NCI-H596; first compound 0.3162 µM) was 0.797. For the same compound, the relative viability (NCI-H596; first compound 1 µM) was 0.656, the relative viability (LCLC-97TM1; first compound 0.03162 µM) was 0.356 and the relative viability (LCLC-97TM1; first compound 0.1 µM) was 0.503. The relative viability (LCLC-97TM1; first compound 0.3162 µM) was 0.435, the relative viability (LCLC-97TM1; first compound 1 µM) was 0.4 and the relative viability (NCI-H1299; first compound 0.01 µM) was 1.08. It also gave a relative viability (NCI-H1299; first compound 0.03162 µM) of 1.01, a relative viability (NCI-H1299; first compound 0.1 µM) of 1.08 and a relative viability (NCI-H1299; first compound 0.3162 µM) of 1.09. For the same compound, the relative viability (NCI-H1299; first compound 1 µM) was 1.01, the relative viability (UMC-11; first compound 0.01 µM) was 0.303 and the relative viability (UMC-11; first compound 0.03162 µM) was 0.293. The relative viability (UMC-11; first compound 0.1 µM) was 0.318, the relative viability (UMC-11; first compound 0.3162 µM) was 0.318 and the relative viability (UMC-11; first compound 1 µM) was 0.308. For the same compound, the relative viability (NCI-H1355; first compound 0.01 µM) was 0.906, the relative viability (NCI-H1355; first compound 0.03162 µM) was 1.09 and the relative viability (NCI-H1355; first compound 0.1 µM) was 0.991. It also gave a relative viability (NCI-H1355; first compound 0.3162 µM) of 1.02, a relative viability (NCI-H1355; first compound 1 µM) of 0.938 and a relative viability (NCI-H322M; first compound 0.01 µM) of 1.26. The relative viability (NCI-H322M; first compound 0.03162 µM) was 1.29, the relative viability (NCI-H322M; first compound 0.1 µM) was 1.23 and the relative viability (NCI-H322M; first compound 0.3162 µM) was 1.22. The relative viability (NCI-H322M; first compound 1 µM) was 1.2, the relative viability (Calu-6; first compound 0.01 µM) was 0.729 and the relative viability (Calu-6; first compound 0.03162 µM) was 0.946. The relative viability (Calu-6; first compound 0.1 µM) was 1.03, the relative viability (Calu-6; first compound 0.3162 µM) was 1.01 and the relative viability (Calu-6; first compound 1 µM) was 0.748.
With O=c1cc(N2CCOCC2)oc2c(-c3cccc4c3sc3ccccc34)cccc12 + CS(=O)(=O)N1CCN(Cc2cc3nc(-c4cccc5[nH]ncc45)nc(N4CCOCC4)c3s2)CC1 [Pictilisib] (partner 1 µM) the relative viability (NCI-H1993; first compound 0.01 µM) was 0.937, the relative viability (NCI-H1993; first compound 0.03162 µM) was 0.945 and the relative viability (NCI-H1993; first compound 0.1 µM) was 0.812. The relative viability (NCI-H1993; first compound 0.3162 µM) was 0.759, the relative viability (NCI-H1993; first compound 1 µM) was 0.799 and the relative viability (EBC-1; first compound 0.01 µM) was 0.409. It also gave a relative viability (EBC-1; first compound 0.03162 µM) of 0.35, a relative viability (EBC-1; first compound 0.1 µM) of 0.338 and a relative viability (EBC-1; first compound 0.3162 µM) of 0.378. It also gave a relative viability (EBC-1; first compound 1 µM) of 0.371, a relative viability (IA-LM; first compound 0.01 µM) of 0.304 and a relative viability (IA-LM; first compound 0.03162 µM) of 0.34. The relative viability (IA-LM; first compound 0.1 µM) was 0.271, the relative viability (IA-LM; first compound 0.3162 µM) was 0.357 and the relative viability (IA-LM; first compound 1 µM) was 0.337. The relative viability (A549; first compound 0.01 µM) was 0.582, the relative viability (A549; first compound 0.03162 µM) was 0.526 and the relative viability (A549; first compound 0.1 µM) was 0.601. It also gave a relative viability (A549; first compound 0.3162 µM) of 0.516, a relative viability (A549; first compound 1 µM) of 0.599 and a relative viability (NCI-H23; first compound 0.01 µM) of 0.529. It also gave a relative viability (NCI-H23; first compound 0.03162 µM) of 0.422, a relative viability (NCI-H23; first compound 0.3162 µM) of 0.513 and a relative viability (NCI-H23; first compound 1 µM) of 0.442. The relative viability (NCI-H1703; first compound 0.01 µM) was 0.245, the relative viability (NCI-H1703; first compound 0.03162 µM) was 0.221 and the relative viability (NCI-H1703; first compound 0.1 µM) was 0.223. It also gave a relative viability (NCI-H1703; first compound 0.3162 µM) of 0.253, a relative viability (NCI-H1703; first compound 1 µM) of 0.252 and a relative viability (NCI-H596; first compound 0.01 µM) of 0.442. The relative viability (NCI-H596; first compound 0.03162 µM) was 0.39, the relative viability (NCI-H596; first compound 0.1 µM) was 0.38 and the relative viability (NCI-H596; first compound 0.3162 µM) was 0.395. For the same compound, the relative viability (NCI-H596; first compound 1 µM) was 0.38, the relative viability (LCLC-97TM1; first compound 0.01 µM) was 0.177 and the relative viability (LCLC-97TM1; first compound 0.03162 µM) was 0.271. It also gave a relative viability (LCLC-97TM1; first compound 0.3162 µM) of 0.233, a relative viability (LCLC-97TM1; first compound 1 µM) of 0.145 and a relative viability (NCI-H1299; first compound 0.01 µM) of 0.922. The relative viability (NCI-H1299; first compound 0.03162 µM) was 0.688, the relative viability (NCI-H1299; first compound 0.1 µM) was 0.897 and the relative viability (NCI-H1299; first compound 0.3162 µM) was 0.816. The relative viability (NCI-H1299; first compound 1 µM) was 0.801, the relative viability (UMC-11; first compound 0.01 µM) was 0.812 and the relative viability (UMC-11; first compound 0.03162 µM) was 0.825. For the same compound, the relative viability (UMC-11; first compound 0.1 µM) was 0.773, the relative viability (UMC-11; first compound 0.3162 µM) was 0.819 and the relative viability (UMC-11; first compound 1 µM) was 0.796. The relative viability (NCI-H1355; first compound 0.01 µM) was 0.486, the relative viability (NCI-H1355; first compound 0.03162 µM) was 0.502 and the relative viability (NCI-H1355; first compound 0.3162 µM) was 0.429. The relative viability (NCI-H1355; first compound 1 µM) was 0.419, the relative viability (NCI-H322M; first compound 0.01 µM) was 0.578 and the relative viability (NCI-H322M; first compound 0.03162 µM) was 0.525. The relative viability (NCI-H322M; first compound 0.3162 µM) was 0.471, the relative viability (NCI-H322M; first compound 1 µM) was 0.507 and the relative viability (Calu-6; first compound 0.01 µM) was 0.879. It also gave a relative viability (Calu-6; first compound 0.03162 µM) of 0.917, a relative viability (Calu-6; first compound 0.1 µM) of 1.06 and a relative viability (Calu-6; first compound 0.3162 µM) of 0.9. It also gave a relative viability (Calu-6; first compound 1 µM) of 1.04.
